Assay results published in US20240287564A1, “ACHOLETIN BIOPOLYMERS AND METHODS FOR ENZYMATIC SYNTHESIS” (THE UNIVERSITY OF BRITISH COLUMBIA, priority 2021, published 2024).
Blank lines part the entries; values can stand above or below the molecule they belong to.

Assays:
AchP [1] = molecular target: T1, AchP (Acholeplasma laidlawii, UniProt A9NH41); test: AchP reverse phosphorolysis kinetics (phosphate release, molybdenum blue); type: biochemical; settings: as donor (GalNAc1-P) or acceptor (glucose); reasonable substrate and enzyme concentrations
AchP [2] = molecular target: T1, AchP; test: Purified AchP donor and acceptor specificity screen; type: biochemical; settings: 3 h room temperature, absorbance 655 nm
Description: AchP was heterologously expressed, purified and screened, in the absence of cell lysate, against an extended set of donors and acceptors, including additional N-acetamido sugars, using a phosphorylase screening method described previously that couples the chromogenic development of molybdenum blue to the liberation of free phosphate during reverse phosphorolysis^39,41 (FIG. 1A). When incubated with Glc1-P as donor, AchP was active in the presence of the acceptors GlcNAc, GlcNAc-β1-pNP, GalNAc and GlcNAc-β1,4-GlcNAc, while no activity was detected with the non-acetylated glucosamine and galactosamine. With GlcNAc1-P as donor, AchP was active with all acceptors that contained an N-acetyl moiety, as well as with glucose and glucosamine, but not galactose and galactosamine.
Thirty-six donor and acceptor combinations were done with purified AchP in a 25 μL reaction volume. 10 μL buffer (200 mM HEPES pH 7.0, 200 mM NaCl, 10 mM MgSO4, 400 mM sodium molybdate) was combined with 5 μL water, 2.5 μL donor (100 mM Glc1-P, 100 mM GlcNAc1-P or 100 mM GalNAc1-P) and 2.5 acceptor (500 mM Glc, 400 mM GlcN, 500 mM GlcNAc, 100 mM GlcNAc-β1-pNP, 500 mM Gal, 500 mM GalN, 500 mM GalNAc, 100 mM GalNAc-α1-pNP, 100 mM Glc-β1,3-Glc, 100 mM GlcNAc-β1,4-GlcNAc, 500 mM ManNAc or no acceptor) in a 200 μL PCR tube. 5 μL of purified AchP (0.2 mg/mL) was added to each reaction which were then incubated for 3 h at room temperature. Each 25 μL reaction was transferred to a separate well of a 96-well plate. 75 μL of development solution was added to each well then incubated for 5 min at room temperature before the reaction was stopped by adding 50 μL of quenching solution. Absorbance at 655 nm was measured with a BioTek Synergy H1 Hybrid™ microtiter plate reader.

AchP [3] = molecular target: T1, AchP; test: AchP reverse phosphorolysis kinetics (phosphate release, molybdenum blue); type: biochemical
Description: (§1) Kinetic parameters for AchP reverse phosphorolysis were determined using the phosphate release method described previously^44. In brief, phosphate release was coupled to the formation of molybdenum blue, which can be quantified by measuring absorbance at 655 nm. Phosphate concentration was determined using a standard curve ranging between 0 and 10 mM phosphate. Kinetic parameters for AchP were determined with four donor and acceptor combinations: (A) Glc1-P and GlcNAc, (B) Glc1-P and GalNAc, (C) GlcNAc1-P and GlcNAc, and (D) GlcNAc1-P and GalNAc. Donor concentration was held constant at 10 mM while the concentrations of the acceptors were varied (as described below). Reactions were initiated by adding 5 μL of 0.25 mg/mL AchP to 10 μL 2× buffer (200 mM HEPES pH 7.0, 200 mM NaCl, 10 mM MgSO4 and 400 mM sodium molybdate), 2.5 μL of 100 mM donor, 2.5 μL of […] acceptor and 5 μL water. Reactions were stopped at the times (t) indicated below by boiling for 5 min, then 20 μL from each reaction was transferred to a 96-well plate. Molybdenum blue formation was initiated by adding 90 μL of color development solution (0.1 N HCl and 0.24% sodium ascorbate) then incubated for 30 min at room temperature. The color development reaction was stopped by adding 90 μL of quenching solution (68 mM sodium citrate and 2% acetic acid). Absorbance at 655 nm was measured with a BioTek Synergy H1 Hybrid™ microtiter plate reader. All reactions were performed in triplicate and acceptor concentrations were chosen to encompass apparent Km value where possible. (A) 10 mM Glc1-P; 0, 1, 5, 10, 25, 50, 100, 200 and 300 mM GlcNAc; t=2 min 45 s. (B) 10 mM Glc1-P; 0, 5, 25, 50, 100, 150, 200, 300 and 380 mM GalNAc; t=5 min. (C) 10 mM GlcNAc1-P; 0, 0.1, 0.25, 0.5, 1, 2, 5, 10, 25 and 50 mM GlcNAc; t=3 min. (D) 10 mM GlcNAc1-P; 0, 5, 10, 25, 50, 100, 150, 200 and 300 mM GalNAc; t=3 min. Non-linear regression was performed using GraphPad Prism™ version 6.0. For (A) and (C) data were fit using the Michaelis-Menten equation incorporating substrate inhibition: For (B) and (D) data were fit using the standard Michaelis-Menten equation: […]

[4] = molecular target: GH101 endo-α-N-acetylgalactosamindase (EngSP) (Streptococcus pneumoniae, UniProt Q8DR60); settings: only minimal aglycone release in controls
Description: Both GlcNAc-β1,3-GalNAc-MU and GlcNAc-β1,3-GalNAc-pNP were assayed as potential substrates for the core 3 T-antigen cleaving enzyme endo-α-N-acetylgalactosaminidase from Streptococcus pneumoniae R6 (EngSP)^47,66. For GlcNAc-β1,3-GalNAc-MU, in a 96-well plate 2 μL of the AchP reaction was combined with 48 μL reaction buffer A and reaction initiated by adding 0.4 μL spGH101 (10 mg/mL). Release of MU was monitored continuously in a BioTek Synergy H1 Hybrid™ microtiter plate reader (Ex. 365 nm, Em. 440 nm) (FIG. 6). For GlcNAc-β1,3-GalNAc-pNP, in a 96-well plate 10 μL of the AchP reaction was combined with 39 μL reaction buffer A and initiated by adding 1 μL EngSP (10 mg/mL). Release of pNP was monitored continuously in a BioTek Synergy H1 Hybrid™ microtiter plate reader (absorbance 400 nm) (FIG. 6).

AchP [5] = molecular target: T1, AchP; test: AchP forward phosphorolysis product analysis (TLC); type: biochemical; settings: with phosphate
Description: (A) AchP products with GlcNAc1-P (donor) and GlcNAc (GNAc1), GlcNAc-β1,4-GlcNAc (GNAc2), or GlcNAc(-β1,4-GlcNAc)3 (GNAc4) (acceptors) were analyzed by TLC, where the products are outlined in black boxes. (B) AchP forward phosphorolysis product analysis with GlcNAc-β1,4-GlcNAc and phosphate and the reverse phosphorolysis with Glc1-P and GlcNAc was include as a control reaction.
Of the six activities described to date in the GH94 family only the N,N′-diacetylchitobiose phosphorylases (ChbP) are known to use GlcNAc1-P as donor, transferring only to monosaccharide GlcNAc acceptors and not to di- or trisaccharides. The other five types utilize Glc1-P. The bacteria from which both characterized ChbPs were discovered are native to marine environments where chitin, a polysaccharide of β1,4-linked GlcNAc and the primary structural component of the exoskeleton of marine invertebrates, is common. Presumably these ChbPs act on disaccharides released from chitin by chitinases. AchP on the other hand is able to utilize GlcNAc-β1,4-GlcNAc and GlcNAc(-β1,4-GlcNAc)3 as acceptors performing iterative addition of N-acetylglucosaminyl residues (FIG. 4A). As noted earlier, we initially anticipated that AchP was a chitin phosphorylase. […]

[6] = substrate: CC(=O)NC1C(O)[C@@H](O)C(CO)O[C@@H]1O; test: AchP reverse phosphorolysis kinetics (phosphate release, molybdenum blue); type: biochemical, Acholeplasma laidlawii; settings: other: donor αGlcNAc1-P 10 mM; acceptor concentration varied; pH 7.0
Description: as §1

[7] = substrate: CC(=O)NC1C(O)[C@H](O)C(CO)O[C@H]1O; test: as above; type: biochemical, Acholeplasma laidlawii; settings: acceptor concentration varied, pH 7.0
Description: as §1

Sequence of GH101 endo-α-N-acetylgalactosamindase (EngSP) (Q8DR60 40-1738 limits assumed): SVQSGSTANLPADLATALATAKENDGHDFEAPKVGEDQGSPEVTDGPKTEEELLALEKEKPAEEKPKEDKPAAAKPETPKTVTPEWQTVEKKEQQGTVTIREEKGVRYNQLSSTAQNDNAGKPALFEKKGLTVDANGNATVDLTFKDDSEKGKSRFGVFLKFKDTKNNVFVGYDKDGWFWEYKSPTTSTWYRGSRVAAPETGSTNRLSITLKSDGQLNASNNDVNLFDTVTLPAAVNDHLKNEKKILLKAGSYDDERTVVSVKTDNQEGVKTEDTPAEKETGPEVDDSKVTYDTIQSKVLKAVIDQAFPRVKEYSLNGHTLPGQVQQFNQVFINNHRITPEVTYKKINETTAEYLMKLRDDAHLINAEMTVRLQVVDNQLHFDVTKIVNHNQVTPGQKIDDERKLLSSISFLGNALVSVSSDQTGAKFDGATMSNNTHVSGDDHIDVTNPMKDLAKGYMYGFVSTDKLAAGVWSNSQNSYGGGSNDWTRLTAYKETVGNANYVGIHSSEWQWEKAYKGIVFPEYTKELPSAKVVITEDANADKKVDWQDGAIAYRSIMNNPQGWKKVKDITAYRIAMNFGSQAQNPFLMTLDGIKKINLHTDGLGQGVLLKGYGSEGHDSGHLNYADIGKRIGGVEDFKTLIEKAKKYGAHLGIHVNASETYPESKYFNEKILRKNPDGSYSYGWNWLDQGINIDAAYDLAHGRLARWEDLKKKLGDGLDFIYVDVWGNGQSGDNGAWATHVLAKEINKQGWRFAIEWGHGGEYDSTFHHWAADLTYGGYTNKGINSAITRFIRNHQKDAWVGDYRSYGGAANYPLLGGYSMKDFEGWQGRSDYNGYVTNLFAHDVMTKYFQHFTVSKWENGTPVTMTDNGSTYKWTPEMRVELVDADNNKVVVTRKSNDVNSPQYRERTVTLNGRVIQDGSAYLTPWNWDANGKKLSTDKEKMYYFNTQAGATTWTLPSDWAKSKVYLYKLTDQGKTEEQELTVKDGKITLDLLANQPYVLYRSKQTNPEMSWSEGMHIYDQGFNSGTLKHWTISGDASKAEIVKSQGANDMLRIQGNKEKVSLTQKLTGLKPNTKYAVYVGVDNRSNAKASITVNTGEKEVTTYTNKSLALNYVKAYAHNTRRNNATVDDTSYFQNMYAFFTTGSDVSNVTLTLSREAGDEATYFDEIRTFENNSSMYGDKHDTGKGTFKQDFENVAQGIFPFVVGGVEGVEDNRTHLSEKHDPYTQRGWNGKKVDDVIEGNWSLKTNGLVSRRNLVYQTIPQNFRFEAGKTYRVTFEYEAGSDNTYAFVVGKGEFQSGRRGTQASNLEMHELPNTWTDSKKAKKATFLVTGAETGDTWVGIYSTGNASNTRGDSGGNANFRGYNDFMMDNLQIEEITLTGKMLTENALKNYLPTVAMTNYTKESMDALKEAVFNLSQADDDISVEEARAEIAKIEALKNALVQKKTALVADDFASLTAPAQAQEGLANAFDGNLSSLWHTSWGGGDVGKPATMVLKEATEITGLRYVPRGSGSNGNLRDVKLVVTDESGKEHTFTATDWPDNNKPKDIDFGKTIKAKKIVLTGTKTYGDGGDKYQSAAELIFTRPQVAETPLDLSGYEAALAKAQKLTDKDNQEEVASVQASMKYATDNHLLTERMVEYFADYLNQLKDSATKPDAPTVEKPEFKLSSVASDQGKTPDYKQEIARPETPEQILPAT

Activities (kinetic parameters not determined) (AchP [1]): too low
Molecule: CC(=O)N[C@H]1C(OP(=O)(O)O)O[C@H](CO)[C@H](O)[C@@H]1O (stereo partly drawn) [GalNAc1-P]

AchP activity with acceptor (AchP [2]; Glc1-P as donor): active
kcat (AchP [3]; donor αGlc1-P 10 mM, acceptor concentration varied): 12.5 ± 0.5 s⁻¹
Molecule: CC(=O)NC1C(O)[C@@H](O)C(CO)O[C@@H]1O (stereo partly drawn) [GalNAc, N-acetylgalactosamine]

Km value lower than with Glc1-P as donor (AchP [3]; GlcNAc as acceptor): ~10 fold
kcat greater than with Glc1-P as donor (AchP [3]; GlcNAc as acceptor): 2 fold
Molecule: CC(=O)N[C@H]1[C@@H](OP(=O)(O)O)O[C@H](CO)[C@@H](O)[C@@H]1O [GlcNAc1-P, α-N-acetylglucosamine 1-phosphate]

AchP activity with acceptor (AchP [2]; Glc1-P as donor): active
Ki (AchP [3]; donor αGlcNAc1-P 10 mM, substrate inhibition fit): 27.1 ± 3.6 mM
Molecule: CC(=O)NC1C(O)[C@H](O)C(CO)O[C@H]1O (stereo partly drawn) [GlcNAc, N-acetyl-glucosamine]

AchP activity with acceptor (AchP [2]; Glc1-P as donor): active
phosphorolysis (substrate cleavage) (AchP [5]): no substrate cleavage could be detected
Molecule: CC(=O)N[C@H]1[C@H](O[C@H]2[C@H](O)[C@@H](NC(C)=O)C(O)O[C@@H]2CO)O[C@H](CO)[C@@H](O)[C@@H]1O (stereo partly drawn) [GlcNAc-β1,4-GlcNAc, N,N′-diacetylchitobiose]

AchP activity with acceptor (AchP [2]; Glc1-P as donor): no activity
AchP activity with acceptor (AchP [2]; GlcNAc1-P as donor): not
Molecule: N[C@H]1C(O)O[C@H](CO)[C@H](O)[C@@H]1O (stereo partly drawn) [galactosamine]

AchP activity with acceptor (AchP [2]; Glc1-P as donor): no activity
AchP activity with acceptor (AchP [2]; GlcNAc1-P as donor): active
Molecule: N[C@H]1C(O)O[C@H](CO)[C@@H](O)[C@@H]1O (stereo partly drawn) [glucosamine]

Further lines, the molecule ahead of its results:

Molecule: CC(=O)NC1C(OC2C(O)C(CO)OC(Oc3ccc4c(C)cc(=O)oc4c3)C2NC(C)=O)OC(CO)C(O)C1O (stereo not drawn) [GlcNAc-β1,3-GalNAc-α1-MU]
aglycone release after incubation with EngSP [4]: release of both pNP and MU aglycones could be detected

Molecule: CC(=O)NC1C(OC2C(O)C(CO)OC(Oc3ccc([N+](=O)[O-])cc3)C2NC(C)=O)OC(CO)C(O)C1O (stereo not drawn) [GlcNAc-β1,3-GalNAc-α1-pNP]
aglycone release after incubation with EngSP [4]: release of both pNP and MU aglycones could be detected

Molecule: CC(=O)N[C@H]1[C@H](Oc2ccc([N+](=O)[O-])cc2)O[C@H](CO)[C@@H](O)[C@@H]1O [GlcNAc-β1-pNP]
AchP activity with acceptor (AchP [2]; Glc1-P as donor): active

Molecule: O=C[C@H](O)[C@@H](O)[C@@H](O)[C@H](O)CO [galactose, D-galactose]
AchP activity with acceptor (AchP [2]; GlcNAc1-P as donor): not

Molecule: OC[C@H]1O[C@@H](O[C@H]2[C@H](O)[C@@H](CO)OC(O)[C@@H]2O)[C@H](O)[C@@H](O)[C@@H]1O (stereo partly drawn) [laminaribiose]
AchP activity with acceptor (AchP [2]; Glc1-P as donor): no activity

B1: AchP (Acholeplasma laidlawii PG-8A) (protein)
chain: MKLKQDVISIYQKISLFESGQLNITKLASGAYYLDDELTLITDPVNSGARFPYAVNGMTIWAYASGYISINHSSYYILPPNLEGKEPFLDFFGIEQDGNNTYPVSLLGVSERNDEIENKRYTVFSKNIAYYITVTKNFLYAVTVYISKDFKIYFNTVAHNLTGETKQITLSSFFNMLFKYDSGESIETKWFKKVSYENNMFIYDAPEDIDRHTRIENYGVVKRHLHTKPKNIQNTTSRIDYVGKRYRSVRNALSIRSLKFEKAPLVTNFTDTAINADLINYEVKAYDTIISSYRIETCHDKDTLNKMMASDLTDKEIKKVYEGLSNTQSYDFDNFGISFKGVNDNRVDDKVLNQFLKLVNYQIHFSSLSSNSGTVFLGVRDVMQQLESSLIWDRKNVRSKILEVLSFIDPSGLPPRQYALPPKEGNPRMDLRPFIDQGLWIISTLHTYLAYTEDYDILNEVCGYYERIEPNSAKKSKVENSVLEHLIRVTNYLVSNIDPSTYGLKALYGDWNDALDGLGLIEGSSGYGNGVSVMATLQLYENLERMIEILKLVDPQNEHINTYEVVRHNLSLGINKYAVVIKQDEKRVLHGWGHDRSYFVGSFNDPDGHSRNSLTSNAFYIISDMIKNTPEMKPHLLHAFHNLDSKYGLKTFDPAMQDFHGFGRIINLPPGTAENAATYVHATLFGVLALYMLGEGDFANEQVLKVLPITKKEMSTSPFIMPNSYVHNEELNMDGESMSDWYTGSANTLLKTLIRGLFGLEVKFDHLRLRPSKAFFSKEATLMVSIGNKLTRIVYKNNNNGNRTFKLNGKVIEAKLDTLSGLLYIDINKSILEHQNVIHIQD
Km [6]: 71.4 ± 4.1 mM
kcat [6]: 46.7 ± 0.9 s⁻¹
kcat/Km [6]: 700 ± 200 M⁻¹ s⁻¹
Km ([7]; other: donor αGlc1-P 10 mM): 29.9 ± 3.7 mM
kcat ([7]; other: donor αGlc1-P 10 mM): 24.2 ± 1.6 s⁻¹
kcat/Km ([7]; other: donor αGlc1-P 10 mM): 800 ± 400 M⁻¹ s⁻¹
Km ([7]; other: donor αGlcNAc1-P 10 mM): 3.5 ± 0.4 mM
kcat ([7]; other: donor αGlcNAc1-P 10 mM): 50.8 ± 3.2 s⁻¹
kcat/Km ([7]; other: donor αGlcNAc1-P 10 mM): 14500 ± 8000 M⁻¹ s⁻¹
